In PubChem BioAssay AID179 (DTP/NCI, 2004):
The source made the active and inactive calls.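 Rule for the calls: active = compounds giving half or more protection of infected cells from virus-caused growth loss, again on retest; inactive = the rest.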

System: CEM cells HIV-1 protection, formazan growth assay
Test: NCI AIDS Antiviral Assay
Details: for IC50: measured here: growth of uninfected CEM cells
How it was run: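 Screen of anti-HIV-1 activity in human CEM cells using a formazan-based growth measurement at five drug concentrations. Hits with 50% or greater protection were repeated, and confirmation required reproducible complete protection.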

SMILES | outcome | EC50 [µM] | IC50 [µM]
O=C1OC(/C=C/c2ccccc2)Sc2ccccc21 (stereo not given) | inactive | – | –
Cn1cc(NC(=O)c2cc(NC(=O)[C@@H]3CCC(N)=N3)c[nH]2)cc1C(=O)NCCC(=N)N | inactive | – | –
O=C(O)C1c2ccccc2C(C(=O)O)c2ccccc21 (stereo not given) | inactive | – | –
c1ccc(C2=NOC3(c4ccccc4)CC(c4cccs4)Sc4ccccc4N23)cc1 (stereo not given) | – | > 200 | 70.8
CC(C)S(=O)(=O)ON1C(=O)c2ccc([N+](=O)[O-])cc2C1=O | – | > 115 | 18.2
Cn1ccnc1.Cn1ccnc1.NCCN.[Cl-].[Pt+4] | – | > 200 | > 200
CCOC(=O)C(=O)N=Nc1nc2c(O)c3ccccc3c(O)c2s1 | – | > 15.1 | 8.71
Cc1noc2c1CSC1=C2S(=O)(=O)N(C)c2ccccc21 | – | > 58.9 | > 58.9
COC(=O)c1nc2c(C)c(O)c(Oc3c(C)c(O)c(O)c([C@H](C)CCC=C(C)C)c3O)c([C@H](C)CCC=C(C)C)c2o1 | – | > 200 | 7.94
O=C(N/N=C/c1ccc(Br)cc1)N/N=C/c1ccc(Br)cc1 | – | > 200 | 31.6
C=C1SC(=Nc2ccc(Cl)cc2)N(c2nc(Cl)nc(Cl)n2)C12CCCCC2 | – | > 100 | > 100
CCCCc1ccc(Nc2nc3c(ncn3C3CC(O)C(CN=[N+]=[N-])O3)c(=O)[nH]2)cc1 (stereo not given) | – | > 200 | > 200
NNC(=O)C(CC(C(=O)NN)C(=O)NN)C(=O)NN | – | > 912 | 66.1
O=C1c2ccccc2N(O)C1(c1ccccc1)C1CCCC=C1N1CCOCC1 (stereo not given) | inactive | – | –
CN(C)c1ccc(C2CC(=O)CC(c3ccc(N(C)C)cc3)C23C(=O)NC(=O)NC3=O)cc1 (stereo not given) | – | > 25.1 | > 25.1
O=[N+]([O-])c1ccc(Sc2c3ccccc3nc3ccccc23)cn1 | – | > 100 | 7.24
COc1ccc(N(CC(=O)O)S(=O)(=O)c2ccccc2)cc1 | inactive | – | –
CN(C)CC(C)(C)C(/C=C/c1ccccc1)=N\Nc1ccccc1 | inactive | – | –
CCCCOC(=O)CSSCC(=O)OCCCC | – | > 200 | 51.3
CCC12C=C(C(=O)OC)N3c4ccccc4C4CCN(CCC1)C2C43 (stereo not given) | inactive | – | –
CNS(=O)(=O)NNS(=O)(=O)c1ccccc1 | – | > 933 | > 200

SMILES | outcome | EC50 [µM] | IC50 [µM]
O=c1c2cc([N+](=O)[O-])ccc2[nH]n1Cc1ccccc1Cl | – | > 200 | 41.7
O=C1C=C(NC(=O)c2ccc(Cl)cc2)c2ncccc2C1=O | inactive | – | –
OC(C#CCN1CCCC1)(c1ccccc1)c1ccccc1.[C-]#[O+].[C-]#[O+].[C-]#[O+].[C-]#[O+].[C-]#[O+].[C-]#[O+].[Co].[Co] | – | > 200 | 7.41
CCOC(=O)C(NC(=O)c1ccccc1)(Nc1ccc(S(=O)(=O)Nc2cc(C)on2)cc1)C(F)(F)F (stereo not given) | – | > 200 | > 200
CCNc1ncnc2sc(SCc3ccccc3)nc12 | – | > 200 | > 200
O=C1NCCCCC1CC/C=C/c1ccccc1 (stereo not given) | – | > 148 | 95.5
CC(=O)Nc1ccc(/C(C#N)=C/c2ccc(N(C)CCC#N)cc2)cc1 | – | > 200 | 19.1
CC(=O)OC1=C(c2ccccc2)c2ccccc2OC1 | – | > 26.9 | > 26.9
CC1(C)CNC[C@](C)(OCCCO[C@@]2(C)CNCC(C)(C)NC2=O)C(=O)N1 | – | > 200 | > 200
Cn1cnc2c1c(=O)n(CCNCCO)c(=O)n2C | – | > 200 | > 200
C=CCNC(=S)/N=C/C(C(=O)Nc1ccccc1OC)=C(\C)O | inactive | – | –
Cc1c(N)nc(C(CC(N)=O)NCC(N)C(N)=O)nc1C(=O)NC(C(=O)NC(C)C(O)C(C)C(=O)NC(C(=O)NCCc1nc(-c2nc(C(=O)NCCCNC(C)c3ccccc3)cs2)cs1)C(C)O)C(OC1OC(CO)C(O)C(O)C1OC1OC(CO)C(O)C(OC(N)=O)C1O)c1cnc[nH]1 (stereo not given) | inactive | – | –
COc1ccc(-n2c(SCC(=O)NC(=O)Nc3ccccc3)nc3c(Br)cc(Br)cc3c2=O)cc1 | – | > 200 | > 200
CC[C@]12C=CCN3CCC4(c5cc([C@]6(C(=O)OC)C[C@H]7CN(CCc8c6[nH]c6ccccc86)C[C@@H]6CCCC[C@H]76)c(OC)cc5N(C)C4[C@@](O)(C(=O)OC)C1OC(C)=O)[C@@H]32 (stereo not given in full) | – | > 240 | 1.32
Cc1cccc2oc3c(CC(=O)O)cccc3c(=O)c12 | – | > 200 | > 100
c1ccc(OCc2nnc3n2N=C(c2ccccc2)CS3)cc1 | inactive | – | –
COc1cc(-c2cc(-c3ccccc3)c3cc(Cl)ccc3n2)cc(OC)c1OC | – | > 200 | > 200
CC1(C)O[C@]2(C=C[C@@H]1O)CCCCO2 | – | > 251 | > 251
Cn1c(COC(=O)NC2CCCCC2)c(COC(=O)NC2CCCCC2)c2ccc3cc(C=O)ccc3c21 | – | > 174 | 2.19
c1ccc(-c2nnc(-c3nsc4ccccc34)o2)cc1 | – | > 18.6 | > 18.6
c1ccc(-c2csc3n4ccccc4c[n+]23)cc1 | inactive | – | –

SMILES | outcome | EC50 [µM] | IC50 [µM]
Nc1ccc(F)cc1-c1nc2ccc(F)cc2c2nc3ccccc3n12 | inactive | – | –
C/C=C1\CN2CCc3c([nH]c4ccccc34)C2CC1CC(=O)N(C)C (stereo not given) | – | > 200 | > 200
CNC(C)(C)C(SSSC(c1ccc(Cl)cc1)C(C)(C)NC)c1ccc(Cl)cc1 (stereo not given) | – | > 200 | 3.55
COc1cccc(/C=N/[N-]C(N)=O)c1[O-].[Ni+2].[OH3+] | – | > 166 | 0.0525
CCN1CC(C)Cn2c(=S)[nH]c3cc(Br)cc1c32 (stereo not given) | – | 5.01 | 138
O=C(O)C(SSC(C(=O)O)(c1ccccc1)c1ccccc1)(c1ccccc1)c1ccccc1 | – | > 200 | 89.1
COc1ccc(NC(=O)/C(Cc2nc3ccccc3[nH]c2=O)=N\O)c(OC)c1 | inactive | – | –
COc1ccc(/C=C/C(=O)c2sc(-n3nc(-c4ccccc4)cc3-c3ccccc3)nc2C)cc1OC | – | > 70.8 | 38
CN1CCN(CCC=C2c3ccccc3Sc3ccc(S(=O)(=O)N(C)C)cc32)CC1 | – | > 200 | 11.7
CO/N=C1\CC(NC(=O)CNC(=O)OC(C)(C)C)c2ccsc21 (stereo not given) | – | > 200 | > 200
O=c1c(-c2ccccc2)coc2cc(O)ccc12 | – | > 200 | 52.5
NCCCCCS(=O)(=O)O | – | > 9330 | > 9330
O=C1NC(N2CCCC(CO)C2)=N/C1=C\c1cccs1 (stereo not given) | – | > 200 | > 200
COc1ccc(C(=O)C2CCC(C(=O)O)C2)cc1 (stereo not given) | inactive | – | –
O=C1CCCC/C1=C/C=C/c1ccccc1 | – | > 64.6 | > 64.6
O=C(O)CCSSCCCCS(=O)O | – | > 200 | 2.04
CN(C)C(=S)/N=C(\N)N(C)C | inactive | – | –
Cc1ccccc1-n1c(N)c(-c2nc3ccccc3[nH]2)sc1=S | – | > 4.27 | > 4.27
COc1cccc(NC(=O)/C(CC(=O)CC(c2ccccc2)c2c(O)c3ccccc3oc2=O)=N\NC(C)(C)C)c1OC (stereo not given) | – | > 85.1 | 70.8
O=c1oc2ccccc2c(O)c1C=NC(=S)c1ccncc1 | – | > 200 | 182
C[Si]1(C)C(c2ccccc2)=CC2C(c3ccccc3)(c3ccccc3)OC21c1ccccc1 (stereo not given) | – | > 4.27 | 1.17
